Values after ≈ are worked out from the molar mass of the structure shown.
Legend:
[1] = Thermodynamic solubility of the compound at pH 1; type: physicochemical; conditions: buffer, read-out: Therm_solubility
[2] = molecular target: T1, Adenosine receptor A3 (Homo sapiens) (UniProt P0DMS8); assay: Displacement of [3H]PSB-11 from human A3 receptor expressed in CHO cell membrane at 10 uM by liquid scintillation counting method relative to control relative to control; type: cell membranes
T1 sequence (whole entry): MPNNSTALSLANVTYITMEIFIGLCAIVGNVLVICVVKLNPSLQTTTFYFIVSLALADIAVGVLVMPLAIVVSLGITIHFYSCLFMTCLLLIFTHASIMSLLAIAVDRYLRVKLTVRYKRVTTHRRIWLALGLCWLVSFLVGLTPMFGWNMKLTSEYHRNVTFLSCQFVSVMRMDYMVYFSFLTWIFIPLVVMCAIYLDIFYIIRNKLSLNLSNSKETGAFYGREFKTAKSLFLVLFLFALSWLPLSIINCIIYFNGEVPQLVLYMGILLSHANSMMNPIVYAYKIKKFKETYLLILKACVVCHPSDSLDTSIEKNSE

[3] = molecular target: T2, Amine oxidase [flavin-containing] B (Homo sapiens, UniProt P27338); assay: Inhibition of recombinant human MAO-B expressed in baculovirus infected BTI insect cells at 10 uM preincubated for 30 mins followed by addition of p-tyramine as substrate measured over 45 mins by Amplex Red MAO assay relative to control; conditions: 0.75 h
T2 sequence (P27338 whole entry): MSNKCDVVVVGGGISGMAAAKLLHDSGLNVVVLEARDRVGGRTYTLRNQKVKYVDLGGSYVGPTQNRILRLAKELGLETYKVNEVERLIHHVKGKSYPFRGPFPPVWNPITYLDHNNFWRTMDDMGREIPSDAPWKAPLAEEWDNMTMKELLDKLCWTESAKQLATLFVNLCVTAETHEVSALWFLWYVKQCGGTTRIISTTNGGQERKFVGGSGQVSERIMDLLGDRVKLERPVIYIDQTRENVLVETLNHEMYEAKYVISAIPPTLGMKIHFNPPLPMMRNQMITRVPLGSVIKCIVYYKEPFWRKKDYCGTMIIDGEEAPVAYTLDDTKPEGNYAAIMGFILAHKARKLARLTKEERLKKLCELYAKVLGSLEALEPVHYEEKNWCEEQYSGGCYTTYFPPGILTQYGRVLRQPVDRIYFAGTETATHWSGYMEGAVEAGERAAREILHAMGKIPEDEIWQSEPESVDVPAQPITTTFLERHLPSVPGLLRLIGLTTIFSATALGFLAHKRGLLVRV

[4] = molecular target: Adenosine receptor A2a (Rattus norvegicus) (UniProt P30543); assay: Displacement of [3H]MSX from A2A receptor in rat brain striatum membranes at 1 uM measured after 30 mins by liquid scintillation counting method relative to control; type: cell membranes
Adenosine receptor A2a [5] = molecular target: Adenosine receptor A2a (Rattus norvegicus, UniProt P30543); assay: Displacement of [3H]MSX from A2A receptor in rat brain striatum membranes measured after 30 mins by liquid scintillation counting method; type: cell membranes
[6] = Thermodynamic solubility of the compound at pH 4; type: physicochemical; conditions: buffer, read-out: Therm_solubility
[7] = molecular target: T3, Adenosine receptor A2b (Homo sapiens) (UniProt P29275); assay: Displacement of [3H]PSB-603 from human A2B receptor expressed in CHO cell membrane at 0.3 uM relative to control; type: cell membranes
T3 sequence (whole entry): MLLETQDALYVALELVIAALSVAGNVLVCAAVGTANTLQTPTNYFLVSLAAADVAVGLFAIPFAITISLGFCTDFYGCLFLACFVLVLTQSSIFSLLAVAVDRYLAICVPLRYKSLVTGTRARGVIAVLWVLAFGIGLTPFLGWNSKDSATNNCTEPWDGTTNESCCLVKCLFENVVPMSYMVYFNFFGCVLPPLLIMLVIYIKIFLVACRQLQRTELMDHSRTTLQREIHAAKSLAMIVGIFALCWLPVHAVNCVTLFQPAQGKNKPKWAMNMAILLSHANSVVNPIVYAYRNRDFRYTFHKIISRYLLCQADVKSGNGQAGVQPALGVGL

[8] = Thermodynamic solubility of the compound at pH 7.4; type: physicochemical; conditions: buffer, read-out: Therm_solubility
Adenosine receptor A3 = molecular target: T4, Adenosine receptor A3 (Homo sapiens, UniProt P0DMS8); assay: Displacement of [3H]PSB-11 from human A3 receptor expressed in CHO cell membrane by liquid scintillation counting method relative to control; type: cell membranes
T4 sequence (P0DMS8 whole entry): T1 sequence (whole entry)

Adenosine receptor A2b = molecular target: T5, Adenosine receptor A2b (Homo sapiens, UniProt P29275); assay: Displacement of [3H]PSB-603 from human A2B receptor expressed in CHO cell membrane; type: cell membranes
T5 sequence (P29275 whole entry): T3 sequence (whole entry)

Adenosine receptor A1 [9] = molecular target: T6, Adenosine receptor A1 (Rattus norvegicus, UniProt P25099); assay: Displacement of [3H]CCPA from A1 receptor in rat brain cortex membranes by liquid scintillation counting method; type: cell membranes
T6 sequence (P25099 whole entry): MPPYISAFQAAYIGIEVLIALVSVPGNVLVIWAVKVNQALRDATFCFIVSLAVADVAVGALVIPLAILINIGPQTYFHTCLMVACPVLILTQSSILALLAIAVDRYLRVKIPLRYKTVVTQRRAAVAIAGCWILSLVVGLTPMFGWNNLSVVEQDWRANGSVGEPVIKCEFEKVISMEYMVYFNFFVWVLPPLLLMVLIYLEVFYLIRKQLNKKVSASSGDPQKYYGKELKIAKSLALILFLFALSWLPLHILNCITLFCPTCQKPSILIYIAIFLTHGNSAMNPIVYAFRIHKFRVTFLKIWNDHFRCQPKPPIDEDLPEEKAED

[10] = molecular target: T7, Adenosine receptor A1 (Rattus norvegicus) (UniProt P25099); assay: Displacement of [3H]CCPA from A1 receptor in rat brain cortex membranes at 1.5 uM by liquid scintillation counting method; type: cell membranes
T7 sequence (whole entry): T6 sequence (P25099 whole entry)

[11] = molecular target: T2, Amine oxidase [flavin-containing] B; assay: Inhibition of recombinant human MAO-B expressed in baculovirus infected BTI insect cells preincubated for 30 mins followed by addition of p-tyramine as substrate measured over 45 mins by Amplex Red MAO assay
Adenosine receptor A1 [12] = molecular target: T8, Adenosine receptor A1 (Homo sapiens, UniProt P30542); assay: Displacement of [3H]CCPA from human A1 receptor expressed in CHO cell membrane by liquid scintillation counting method; type: cell membranes
T8 sequence (P30542 whole entry): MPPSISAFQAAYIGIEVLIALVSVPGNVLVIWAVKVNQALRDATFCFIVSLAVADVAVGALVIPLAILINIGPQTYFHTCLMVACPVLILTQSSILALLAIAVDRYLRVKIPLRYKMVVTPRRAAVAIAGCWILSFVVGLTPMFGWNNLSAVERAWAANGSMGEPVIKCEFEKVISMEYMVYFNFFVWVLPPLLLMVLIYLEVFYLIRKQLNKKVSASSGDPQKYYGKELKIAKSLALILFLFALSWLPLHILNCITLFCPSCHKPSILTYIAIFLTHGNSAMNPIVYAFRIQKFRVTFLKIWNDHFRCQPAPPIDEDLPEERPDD

[13] = molecular target: T9, Amine oxidase [flavin-containing] A (Homo sapiens, UniProt P21397); assay: Inhibition of recombinant human MAO-A expressed in baculovirus infected BTI insect cells preincubated for 30 mins followed by addition of p-tyramine as substrate measured over 45 mins by Amplex Red MAO assay
T9 sequence (P21397 whole entry): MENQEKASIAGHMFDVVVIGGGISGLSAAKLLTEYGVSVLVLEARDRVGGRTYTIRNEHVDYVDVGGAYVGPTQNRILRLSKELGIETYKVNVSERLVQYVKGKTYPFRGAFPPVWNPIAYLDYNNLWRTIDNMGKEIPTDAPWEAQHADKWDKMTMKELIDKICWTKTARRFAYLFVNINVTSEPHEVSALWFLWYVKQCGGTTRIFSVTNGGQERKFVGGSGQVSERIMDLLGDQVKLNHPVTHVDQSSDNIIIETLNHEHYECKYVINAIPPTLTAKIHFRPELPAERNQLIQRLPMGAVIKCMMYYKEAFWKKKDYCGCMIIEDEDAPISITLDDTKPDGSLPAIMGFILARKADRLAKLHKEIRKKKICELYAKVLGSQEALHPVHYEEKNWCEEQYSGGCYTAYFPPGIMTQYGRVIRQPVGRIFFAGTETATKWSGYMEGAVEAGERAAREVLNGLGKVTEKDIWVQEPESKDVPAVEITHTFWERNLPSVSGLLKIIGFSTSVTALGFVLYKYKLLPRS

Adenosine receptor A2a [14] = molecular target: Adenosine receptor A2a (Homo sapiens, UniProt P29274); assay: Displacement of [3H]MSX from human A2A receptor measured after 30 mins by liquid scintillation counting method
[15] = molecular target: T3, Adenosine receptor A2b (Homo sapiens); assay: Displacement of [3H]PSB-603 from human A2B receptor expressed in CHO cell membrane at 1 uM relative to control; type: cell membranes
[16] = molecular target: T9, Amine oxidase [flavin-containing] A; assay: Inhibition of recombinant human MAO-A expressed in baculovirus infected BTI insect cells at 10 uM preincubated for 30 mins followed by addition of p-tyramine as substrate measured over 45 mins by Amplex Red MAO assay relative to control; conditions: 0.75 h
[17] = molecular target: T1, Adenosine receptor A3 (Homo sapiens); assay: Displacement of [3H]PSB-11 from human A3 receptor expressed in CHO cell membrane at 3 uM by liquid scintillation counting method relative to control relative to control; type: cell membranes

Adenosine receptor A2a (Homo sapiens, UniProt P29274), sequence (P29274 whole entry): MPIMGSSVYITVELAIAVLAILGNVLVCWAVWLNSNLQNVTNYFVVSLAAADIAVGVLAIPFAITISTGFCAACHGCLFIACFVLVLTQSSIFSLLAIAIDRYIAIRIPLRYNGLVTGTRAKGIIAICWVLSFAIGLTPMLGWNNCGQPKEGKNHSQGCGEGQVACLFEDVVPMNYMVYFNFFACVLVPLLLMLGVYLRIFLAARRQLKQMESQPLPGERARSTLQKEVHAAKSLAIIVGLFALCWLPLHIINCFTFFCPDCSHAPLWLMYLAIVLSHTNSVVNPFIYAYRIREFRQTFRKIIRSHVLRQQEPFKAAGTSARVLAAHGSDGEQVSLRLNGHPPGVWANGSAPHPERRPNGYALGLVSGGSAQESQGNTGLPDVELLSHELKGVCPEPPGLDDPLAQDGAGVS
Adenosine receptor A2a (Rattus norvegicus), sequence (P30543 whole entry): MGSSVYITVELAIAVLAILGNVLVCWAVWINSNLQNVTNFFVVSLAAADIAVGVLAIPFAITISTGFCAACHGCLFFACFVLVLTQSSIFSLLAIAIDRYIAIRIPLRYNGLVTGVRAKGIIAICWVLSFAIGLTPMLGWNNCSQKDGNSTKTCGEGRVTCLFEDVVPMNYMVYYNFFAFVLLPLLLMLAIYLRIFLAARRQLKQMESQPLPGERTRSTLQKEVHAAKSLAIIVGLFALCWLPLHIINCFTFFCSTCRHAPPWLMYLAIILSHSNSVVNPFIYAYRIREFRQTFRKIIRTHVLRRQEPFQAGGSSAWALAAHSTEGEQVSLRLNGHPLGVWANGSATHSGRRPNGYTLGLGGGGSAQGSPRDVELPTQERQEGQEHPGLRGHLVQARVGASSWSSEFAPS
Adenosine receptor A2a (Rattus norvegicus, UniProt P30543), sequence (P30543 whole entry): as above

Cn1c(=O)c2c(nc3n2CCN(CCc2cc(C(F)(F)F)ccc2F)C3)n(C)c1=O
solubility thermodynamic [1]: 400 µg/mL (≈ 940 µM)
Activity [2]: 14%
inhibition at 10 µM [3]: 58%
Activity [4]: 25%
Ki (Adenosine receptor A2a [5]): > 1000 nM
solubility thermodynamic [6]: < 0.5 µg/mL
Activity [7]: 13%
solubility thermodynamic [8]: < 0.5 µg/mL
Ki (Adenosine receptor A3): > 10000 nM
Ki (Adenosine receptor A2b): > 300 nM
Ki (Adenosine receptor A1 [9]): > 1500 nM
Activity [10]: 4%

Cn1c(=O)c2c(nc3n2CCN(Cc2csc(-c4cccc(Cl)c4)n2)C3)n(C)c1=O
IC50 [11]: > 10000 nM
Ki (Adenosine receptor A1 [12]): 73 nM
Activity [2]: 40%
inhibition at 10 µM [3]: -2%
IC50 [13]: > 10000 nM
Ki (Adenosine receptor A2a [14]): 363 nM
Ki (Adenosine receptor A2a [5]): 160 nM
solubility thermodynamic [8]: 2 µg/mL (≈ 4.52 µM)
Activity [15]: 6%
Ki (Adenosine receptor A3): > 10000 nM
Ki (Adenosine receptor A2b): > 1000 nM
Ki (Adenosine receptor A1 [9]): 437 nM
inhibition at 10 µM [16]: -13%

Cn1c(=O)c2c(nc3n2CCN(CCOc2ccccc2)C3)n(C)c1=O
solubility thermodynamic [1]: 1100 µg/mL (≈ 3100 µM)
IC50 [11]: > 10000 nM
Activity [2]: 32%
inhibition at 10 µM [3]: 16%
IC50 [13]: > 10000 nM
Activity [4]: 24%
Ki (Adenosine receptor A2a [5]): > 1000 nM
solubility thermodynamic [6]: 60 µg/mL (≈ 169 µM)
Activity [7]: 4%
solubility thermodynamic [8]: 20 µg/mL (≈ 56.3 µM)
Ki (Adenosine receptor A3): > 10000 nM
Ki (Adenosine receptor A2b): > 300 nM
Ki (Adenosine receptor A1 [9]): > 1500 nM
Activity [10]: -1%
inhibition at 10 µM [16]: 11%

Cn1c(=O)c2c(nc3n2CCN(CCCc2cccc(Br)c2)C3)n(C)c1=O
solubility thermodynamic [1]: 100 µg/mL (≈ 231 µM)
IC50 [11]: > 10000 nM
Ki (Adenosine receptor A1 [12]): 3880 nM
Activity [2]: 35%
inhibition at 10 µM [3]: 26%
IC50 [13]: > 10000 nM
Ki (Adenosine receptor A2a [14]): 512 nM
Ki (Adenosine receptor A2a [5]): 450 nM
solubility thermodynamic [6]: < 0.5 µg/mL
solubility thermodynamic [8]: < 0.5 µg/mL
Activity [15]: 19%
Ki (Adenosine receptor A3): > 10000 nM
Ki (Adenosine receptor A2b): > 1000 nM
Ki (Adenosine receptor A1 [9]): > 1500 nM
Activity [10]: 17%
inhibition at 10 µM [16]: 16%

Cn1c(=O)c2c(nc3n2CCN(C2Cc4ccccc4C2)C3)n(C)c1=O
Activity [17]: 11%
IC50 [11]: 7590 nM
Activity [4]: 26%
Ki (Adenosine receptor A2a [5]): > 10000 nM
Activity [15]: 13%
Ki (Adenosine receptor A3): > 3000 nM
Ki (Adenosine receptor A2b): > 1000 nM
Ki (Adenosine receptor A1 [9]): > 1500 nM
Activity [10]: 12%

Cn1c(=O)c2c(nc3n2CCN(CCc2ccc4c(c2)OCO4)C3)n(C)c1=O
solubility thermodynamic [1]: 300 µg/mL (≈ 782 µM)
Activity [17]: 9%
IC50 [11]: > 10000 nM
inhibition at 10 µM [3]: 24%
Ki (Adenosine receptor A2a [5]): 6170 nM
solubility thermodynamic [6]: 1 µg/mL (≈ 2.61 µM)
solubility thermodynamic [8]: < 0.5 µg/mL
Activity [15]: 12%
Ki (Adenosine receptor A3): > 3000 nM
Ki (Adenosine receptor A2b): > 1000 nM
Ki (Adenosine receptor A1 [9]): > 1500 nM
Activity [10]: 5%

Cn1c(=O)c2c(nc3n2CCN(Cc2csc(-c4ccc(Cl)cc4)n2)C3)n(C)c1=O
Ki (Adenosine receptor A1 [12]): 492 nM
Activity [2]: 43%
inhibition at 10 µM [3]: 47%
IC50 [13]: > 10000 nM
Ki (Adenosine receptor A2a [14]): 346 nM
Ki (Adenosine receptor A2a [5]): 62 nM
solubility thermodynamic [8]: < 0.5 µg/mL
Activity [15]: 17%
Ki (Adenosine receptor A3): > 10000 nM
Ki (Adenosine receptor A2b): > 1000 nM
Ki (Adenosine receptor A1 [9]): 76 nM
inhibition at 10 µM [16]: 3%
